For the experiment, the target named is T1, human κ opioid receptor (OPRK1) (Homo sapiens, UniProt P41145).
T1 construct: expressed in transfected cells; host or cells: CHO-K1
Description: Determination of activities of κ receptor agonists: inhibition of forskolin-stimulated cAMP release (HTRF) in stably transfected CHO-K1 cells. Format: cell-based. The settings on record: for Relative Activity %: relative to Difelikefalin = 100.0. The gist of the method:
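Stably transfected CHO-K1 cells stimulated with graded agonist concentrations in presence of forskolin (concentration not specified). Inhibition of forskolin-stimulated cAMP read by HTRF as relative light units; EC50 calculated from dose-response.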
Background: Time-resolved FRET reads energy transfer from a long-lived donor to a nearby acceptor.

Read-outs that look alike come from different tables or passages of the source.

T1 sequence (P41145 whole entry): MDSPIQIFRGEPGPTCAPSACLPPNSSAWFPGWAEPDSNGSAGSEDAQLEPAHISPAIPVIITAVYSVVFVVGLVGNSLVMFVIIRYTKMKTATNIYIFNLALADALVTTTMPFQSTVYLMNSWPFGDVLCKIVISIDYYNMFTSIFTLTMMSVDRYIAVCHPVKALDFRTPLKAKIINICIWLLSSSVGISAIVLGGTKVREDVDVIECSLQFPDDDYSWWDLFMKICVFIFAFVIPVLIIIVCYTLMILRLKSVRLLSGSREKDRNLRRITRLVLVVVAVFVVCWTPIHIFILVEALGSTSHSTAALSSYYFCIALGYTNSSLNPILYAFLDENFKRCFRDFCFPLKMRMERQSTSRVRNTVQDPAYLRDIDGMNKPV

Turning to `CC(C)C[C@@H](NC(=O)[C@@H](Cc1ccc(I)cc1)NC(=O)[C@H](N)Cc1ccccc1)C(=O)N[C@H](CCCCN)C(=O)N1CCC(N)(C(=O)N[C@@H](CCCCN)C(N)=O)CC1` [Compound 123, D-Phe-D-Phe(4-I)-D-Leu-D-Lys-4-aminopiperidine-4-carboxamide-Lys-NH2], the EC50 (as a rule, the concentration that produces a half-maximal response) was 0.0535 nM and the “Relative Activity %” value was found to be 1135.0%.

For the compound `CC(C)C[C@@H](NC(=O)[C@@H](Cc1ccc(I)cc1)NC(=O)[C@H](N)Cc1ccccc1)C(=O)N[C@H](CCCCN)C(=O)N1CCC(N)(C(=O)N[C@@H](CCCCN)C(=O)O)CC1` [Compound 124, D-Phe-D-Phe(4-I)-D-Leu-D-Lys-4-aminopiperidine-4-carboxamide-Lys-OH], it took 0.0558 nM to reach a half-maximal effect (EC50) and the “Relative Activity %” value is listed as 1088.2%.

For the compound `CC(C)C[C@@H](NC(=O)[C@@H](Cc1ccc(I)cc1)NC(=O)[C@H](N)Cc1ccccc1)C(=O)N[C@H](CCCCN)C(=O)N1CCC(N)(C(=O)N[C@H](CCCCN)C(N)=O)CC1` [Compound 125, D-Phe-D-Phe(4-I)-D-Leu-D-Lys-4-aminopiperidine-4-carboxamide-D-Lys-NH2], a half-maximal response (EC50) required 0.055 nM and the “Relative Activity %” value amounted to 1104.0%.

`Cc1ccc(C[C@@H](NC(=O)[C@H](N)Cc2ccccc2)C(=O)N[C@H](CC(C)C)C(=O)N[C@H](CCCCN)C(=O)N2CCC(N)(C(=O)N[C@@H](CCCCN)C(N)=O)CC2)cc1` [Compound 127, D-Phe-D-Phe(4-Me)-D-Leu-D-Lys-4-aminopiperidine-4-carboxamide-Lys-NH2]: the EC50 came to 0.157 nM and the “Relative Activity %” value worked out at 385.8%.

Take `Cc1ccc(C[C@@H](NC(=O)[C@H](N)Cc2ccccc2)C(=O)N[C@H](CC(C)C)C(=O)N[C@H](CCCCN)C(=O)N2CCC(N)(C(=O)N[C@@H](CCCCN)C(=O)O)CC2)cc1` [Compound 128, D-Phe-D-Phe(4-Me)-D-Leu-D-Lys-4-aminopiperidine-4-carboxamide-Lys-OH]: it took 0.16 nM to reach a half-maximal effect (EC50) and the “Relative Activity %” value came out at 380.2%.

On to `CCc1ccc(C[C@@H](NC(=O)[C@H](N)Cc2ccccc2)C(=O)N[C@H](CC(C)C)C(=O)N[C@H](CCCCN)C(=O)N2CCC(N)(C(=O)N[C@@H](CCCCN)C(N)=O)CC2)cc1` [Compound 131, D-Phe-D-Phe(4-Et)-D-Leu-D-Lys-4-aminopiperidine-4-carboxamide-Lys-NH2], for which the EC50 came out at 0.134 nM and the “Relative Activity %” value is recorded as 454.5%.

As to `CCc1ccc(C[C@@H](NC(=O)[C@H](N)Cc2ccccc2)C(=O)N[C@H](CC(C)C)C(=O)N[C@H](CCCCN)C(=O)N2CCC(N)(C(=O)N[C@@H](CCCCN)C(=O)O)CC2)cc1` [Compound 132, D-Phe-D-Phe(4-Et)-D-Leu-D-Lys-4-aminopiperidine-4-carboxamide-Lys-OH], a half-maximal effect (EC50) was put at 0.13 nM and the “Relative Activity %” value was 465.6%.

Consider `CCc1ccc(C[C@@H](NC(=O)[C@H](N)Cc2ccccc2)C(=O)N[C@H](CC(C)C)C(=O)N[C@H](CCCCN)C(=O)N2CCC(N)(C(=O)N[C@H](CCCCN)C(N)=O)CC2)cc1` [Compound 133, D-Phe-D-Phe(4-Et)-D-Leu-D-Lys-4-aminopiperidine-4-carboxamide-D-Lys-NH2], for which the half-maximal effective concentration (EC50) came out at 0.132 nM and the “Relative Activity %” value is listed as 461.7%.

Regarding `CCc1ccc(C[C@@H](NC(=O)[C@H](N)Cc2ccccc2)C(=O)N[C@H](CC(C)C)C(=O)N[C@H](CCCCN)C(=O)N2CCC(N)(C(=O)N[C@H](CCCCN)C(=O)O)CC2)cc1` [Compound 134, D-Phe-D-Phe(4-Et)-D-Leu-D-Lys-4-aminopiperidine-4-carboxamide-D-Lys-OH], the EC50 was found to be 0.133 nM and the “Relative Activity %” value was found to be 457.6%.

For the compound `CC(C)C[C@@H](NC(=O)[C@@H](Cc1ccc(C(C)C)cc1)NC(=O)[C@H](N)Cc1ccccc1)C(=O)N[C@H](CCCCN)C(=O)N1CCC(N)(C(=O)N[C@H](CCCCN)C(N)=O)CC1` [Compound 137, D-Phe-D-Phe(4-Ipr)-D-Leu-D-Lys-4-aminopiperidine-4-carboxamide-D-Lys-NH2], the EC50 amounted to 0.143 nM and the “Relative Activity %” value was found to be 423.1%.

On to `CC(C)C[C@@H](NC(=O)[C@@H](Cc1ccc(N)cc1)NC(=O)[C@H](N)Cc1ccccc1)C(=O)N[C@H](CCCCN)C(=O)N1CCC(N)(C(=O)N[C@H](CCCCN)C(N)=O)CC1` [Compound 141, D-Phe-D-Phe(4-NH2)-D-Leu-D-Lys-4-aminopiperidine-4-carboxamide-D-Lys-NH2], for which the EC50 stood at 0.112 nM and the “Relative Activity %” value worked out at 543.1%.

`CC(C)C[C@@H](NC(=O)[C@@H](Cc1ccccc1)NC(=O)[C@H](N)Cc1ccccc1)C(=O)N[C@H](CCCCN)C(=O)N1CCC(N)(C(=O)O)CC1` [Difelikefalin, D-Phe-D-Phe-D-Leu-D-Lys-4-caminopiperidine-4-arboxylicacid-OH, reference compound]: the concentration for a half-maximal effect (EC50) (CHO-K1 cell line stably expressing opioid receptors, forskolin-stimulated cAMP, HTRF, read-out: EC50) came to 0.607 nM.
